Results published in patent US7414068B2, “Benzopyran derivatives substituted with secondary amines including tetrazole, method for the preparation thereof and pharmaceutical compositions containing them” (Dongbu Hannong Chemical Co., Ltd., priority 2002, dated 2008).

How the values were obtained:
[1] = system: Low density lipoprotein of human (human LDL); assay: Inhibitory effect against lipid peroxidation induced by copper (LDL oxidation, MDA); assay type: biochemical; conditions: CuSO4 10 μM, 37° C. 18 hours
Method: Low density lipoprotein of human (human LDL, sigma) was dissolved in water to be final concentration of 1 mg/ml. To remove EDTA (ethylenediamine tetraacetate), the aqueous solution was dialyzed in phosphate buffer at 4° C. for 18 hours. At this dialysis, phosphate buffer was changed three times. Phosphate buffer was added to LDL (100 μg LDL protein/ml) which EDTA was removed from the aqueous solution, additionally thereto CuSO4 10 μM as oxidant was added. […] Group to which CUSO4 was not added was used as blank group. Group to which CUSO4 and vehicle were added in place of test compounds was used as control group. The mixture was incubated at 37° C. for 18 hours. EDTA […] was added to the mixture to terminate the oxidation reaction.
As shown in example 4, Cu^2+ facilitates the oxidation reaction to produce malondialdehyde (MDA), lipid peroxidation product. The MDA quantification is achieved by reacting samples with 2-thiobarbituric acid (TBA) and measuring the absorbance at 530 nm. Also, 1,1,3,3-tetramethoxypropane purchased from sigma was used as standard materials. Inhibitory effect against lipid peroxidation of the test compounds was measured by MDA (nmol) to protein (mg). Decrease of MDA to that of control group was calculated.

[2] = system: A7r5 (Rat thoracic aorta smooth muscle cell line, ATCC); assay: Inhibitory effect on accumulation of reactive oxygen species induced by hydrogen peroxide (DCF fluorescence); assay type: cell-based; conditions: hydrogen peroxide 50 μM
Method: To measure reactive oxygen species, H2DCFDA (2′,7′-dichlorodihydrofluorescein diacetate, Molecular Probes, Eugene, Oreg., USA) was used. If H2DCFDA, nonpolar material is transferred through cell membrane, it is changed to H2DCF (2′,7′-dichlorodihydrofluorescein), material impermeable to membrane by intracellular esterase. H2DCF is changed to high fluorescent DCF (2′,7′-dichlorofluorescein) by low fluorescent peroxidated oxygen or hydroxyl radical. H2DCFDA solution (10 mM) dissolved in DMSO was used before the experiment. A7r5 (Rat thoracic aorta smooth muscle cell line, ATCC), as smooth muscle cell was incubated in DMEM (Dulbecco's Modified Eagle's Medium) containing 10% of FBS (fetal bovine serum). Thereafter, the cell was incubated in 48 well plate for two days, then was incubated in serum-free DMEM for 24 hours to use for experiment. Krebs-linger buffer (Krebs-Ringer (K-R), 99.01 mM NaCl, 4.69 mM KCl, 1.87 mM CaCl2, 1.2 mM MgSO4, 1.03 mM K2HPO4, 25 mM NaHCO3, 20 mM Hepes, 11.1 mM D-glucose, pH 7.4) was used for washing and process of cell monolayers. After cell monolayers media was removed, each of test compounds (0.2 ml) was pre-treated to media, then incubated at 37° C. for 15 min. Final concentration was 50 μM, hydrogen peroxide was added. The media was allowed to stand for 30 min. The said solution from media was removed. The media was washed one time. H2DCFDA 20 μM was added to the media. The media was allowed to stand for 30 min. the media was washed two times. Thereafter, oxidation of H2DCFDA was measured by Fluorescence reader (FL600, Biotech Instruments, 485 nm excitation, 530 nm emission).

[3] = system: retina ganglion cell; assay: Protective effect on neuronal cells damage by axotomy of optic nerve; assay type: in vivo, rat; conditions: 20 μM, injected vitreously, after axotomy of optic nerve
Method: Test compounds were dissolved in DMSO to prepare stock solution (100 mM), which was diluted with physiological saline to the 20 μM. 10 μl of […] was injected vitreously.
Adult rats were anesthetized with chloral hydrate (400 mg/Kg), then optic nerve was exposed by bulbar conjunctiva. Thereafter, nerve corresponding to 0.5 mm or 3 mm from eye ball was excided, respectively. Or through upper eyelid cutaneous amputation was accomplished, then part of lacrimal gland was removed. […] The optic nerve was excised about 5 mm back from eye ball. Blood vessels of retina supplying blood to retina was not impaired. Condition of blood vessels of retina was checked with funduscope. Fluorogold (Fluorochrome Inc. 5% in PBS (phosphate buffered solution) was administrated to Half of test group, in the retrograde after axotomy of optic nerve. To investigate cell survival of the ganglion after axotomy, eyes was removed from rats, then retina was isolated in 3 days, 1 week, 2 weeks, 4 weeks, 2 months, 4 months, and 6 months. The isolated retina was investigated by transmission electron microscope. For quantitative analysis, at the same time tissue of retina was prepared. The prepared tissue was investigated by immunochemical dyeing or fluorescent microscope to which 530˜560 nm filter was installed.

[4] = system: diabetic rats; assay: Effect on motor nerve conduction velocity in diabetic rats; assay type: in vivo, rat; conditions: 50 mg/kg orally once a day
Method: Diabetes was induced with injection of Streptozotocin (65 mg/kg) in rats, then test compounds dissolved in 2 ml of media (physiological saline:ethanol:tween 80=1:1:1) were orally administrated once a day. Rats were anesthetized with pentotal, then the sciatic nerve was exposed to measure motor nerve conduction velocity. The nerve was stimulated at two points. The first stimulus electrode was inserted at proximal end, and second electrode stimulus electrode was inserted at the distal notch. The coaxia needle electrode was inserted into interdigitala muscle, then the muscle action potential induced by two points stimulation. The conduction velocity was calculated by dividing the distance between two stimulus points by the latency differences. Lipoic acid (100 mg/kg) was used in comparison with the compound of the present invention in recovery of impaired Motor Nerve Conduction Velocity (MNCV) in diabetic rats. The recovery (%) of Motor Nerve Conduction was calculated according to the following mathematical formula 1.

COC(OC)[C@@]1(C)Oc2ccc(N)cc2[C@H](N(Cc2nnn(C)n2)c2ccc(Cl)cc2)[C@H]1O [Example 11, (2S,3R,4S)-6-amino-4-[N-(4-chlorophenyl)-N-(2-methyl-2H-tetrazol-5-ylmethyl)amino]-3-hydroxy-2-methyl-2-dimethoxymethyl-3,4-dihydro-2H-1-benzopyran]
Inhibitory effect(%) against lipid peroxidation induced by copper ([1]; Addition 10^−5 M): 63.9%
Inhibitory effect(%) against lipid peroxidation induced by copper ([1]; Addition 10^−6 M): 54.9%
Inhibitory effect(%) against lipid peroxidation induced by copper ([1]; Addition 10^−7 M): 27.3%
Inhibitory(%) against reactive oxygen species accumulation ([2]; addition 3 μM): 6%
Inhibitory(%) against reactive oxygen species accumulation ([2]; addition 10 μM): 82%
Inhibitory(%) against reactive oxygen species accumulation ([2]; addition 30 μM): 124%
Survival of the ganglion cell(%) [3]: 43%
Survival of the ganglion cell(%) ([3]; listed as compound of formula 11): 43%
Recovery(%) of motor nerve conduction [4]: 45.8%
MNCV ([4]; streptozotocin diabetic rats): 54 m/s
